Measurements published in patent US9834559B2, “4-Amino-6-phenyl-5,6-dihydroimidazo[1,5-a]pyrazin-3(2H)-one derivatives as inhibitors of beta-secretase (BACE)” (Janssen Pharmaceutica NV, priority 2013, dated 2017).

How the values were obtained:
[1] = target: recombinant BACE1 protein (Homo sapiens, UniProt P56817); assay: BACE1 biochemical FRET based assay; conditions: BACE1 0.04 μg/ml, 20 μM substrate, pH 5.0, 450 min; read-out: Biochemical FRET based assay pIC50 (converted)
From the text: This assay is a Fluorescence Resonance Energy Transfer Assay (FRET) based assay. The substrate for this assay is an APP derived 13 amino acids peptide that contains the ‘Swedish’ Lys-Met/Asn-Leu mutation of the amyloid precursor protein (APP) beta-secretase cleavage site. This substrate also contains two fluorophores: (7-methoxycoumarin-4-yl) acetic acid (Mca) is a fluorescent donor with excitation wavelength at 320 nm and emission at 405 nm and 2,4-Dinitrophenyl (Dnp) is a proprietary quencher acceptor. […] Upon cleavage by BACE1, the fluorophore Mca is separated from the quenching group Dnp, restoring the full fluorescence yield of the donor. The increase in fluorescence is linearly related to the rate of proteolysis.
Briefly in a 384-well format recombinant BACE1 protein in a final concentration of 0.04 μg/ml is incubated for 450 minutes at room temperature with 20 μM substrate in incubation buffer (50 mM Citrate buffer pH 5.0, 0.05% PEG) in the presence of compound or DMSO. Next the amount of proteolysis is directly measured by fluorescence measurement (excitation at 320 nm and emission at 405 nm) at different incubation times (0, 30, 60, 90, 120 and 450 min). For every experiment a time curve (every 30 min between 0 min and 120 min) is used to determine the time where we find the lowest basal signal of the high control. The signal at this time (Tx) is used to subtract from the signal at 450 min. Results are expressed in RFU, as difference between T450 and Tx.
(§1) A best-fit curve is fitted by a minimum sum of squares method to the plot of % Controlmin versus compound concentration. From this an IC50 value (inhibitory concentration causing 50% inhibition of activity) can be obtained. • LC=Median of the low control values • =Low control: Reaction without enzyme • HC=Median of the High control values • =High Control: Reaction with enzyme • % Effect=100−[(sample−LC)/(HC−LC)*100] • % Control=(sample/HC)*100 • % Controlmin=(sample−LC)/(HC−LC)*100

[2] = tested on: Abeta 1-42 produced and secreted by human neuroblastoma SKNBE2 cells expressing hAPP695; assay: Cellular αLisa assay in SKNBE2 cells, Abeta 1-42; assay type: cell-based; conditions: 18 hours incubation, read-out: Cellular αLisa assay in SKNBE2 cells Abeta 42 pIC50 (converted)
Description: (§2) In two αLisa assays the levels of Abeta total and Abeta 1-42 produced and secreted into the medium of human neuroblastoma SKNBE2 cells are quantified. The assay is based on the human neuroblastoma SKNBE2 expressing the wild type Amyloid Precursor Protein (hAPP695). The compounds are diluted and added to these cells, incubated for 18 hours and then measurements of Abeta 1-42 and Abeta total are taken. Abeta total and Abeta 1-42 are measured by sandwich αLisa. αLisa is a sandwich assay using biotinylated antibody AbN/25 attached to streptavidin coated beads and antibody Ab4G8 or cAb42/26 conjugated acceptor beads for the detection of Abeta total and Abeta 1-42 respectively. In the presence of Abeta total or Abeta 1-42, the beads come into close proximity. The excitation of the donor beads provokes the release of singlet oxygen molecules that trigger a cascade of energy transfer in the acceptor beads, resulting in light emission. Light emission is measured after 1 hour incubation (excitation at […] and emission at 615 nm).
as §1, with “cells preincubated” for “Reaction”, “compound, without biotinylated Ab in the αLisa” for “enzyme”, “cells preincubated without compound” for “Reaction with enzyme”

[3] = tested on: Abeta total produced and secreted by human neuroblastoma SKNBE2 cells expressing hAPP695; assay: Cellular αLisa assay in SKNBE2 cells, Abeta total; assay type: cell-based; conditions: 18 hours incubation, read-out: Cellular αLisa assay in SKNBE2 cells Abetatotal pIC50 (converted)
Description: as §2
as §1, with “cells preincubated” for “Reaction”, “compound, without biotinylated Ab in the αLisa” for “enzyme”, “cells preincubated without compound” for “Reaction with enzyme”

Chain of recombinant BACE1 protein (P56817 46-501): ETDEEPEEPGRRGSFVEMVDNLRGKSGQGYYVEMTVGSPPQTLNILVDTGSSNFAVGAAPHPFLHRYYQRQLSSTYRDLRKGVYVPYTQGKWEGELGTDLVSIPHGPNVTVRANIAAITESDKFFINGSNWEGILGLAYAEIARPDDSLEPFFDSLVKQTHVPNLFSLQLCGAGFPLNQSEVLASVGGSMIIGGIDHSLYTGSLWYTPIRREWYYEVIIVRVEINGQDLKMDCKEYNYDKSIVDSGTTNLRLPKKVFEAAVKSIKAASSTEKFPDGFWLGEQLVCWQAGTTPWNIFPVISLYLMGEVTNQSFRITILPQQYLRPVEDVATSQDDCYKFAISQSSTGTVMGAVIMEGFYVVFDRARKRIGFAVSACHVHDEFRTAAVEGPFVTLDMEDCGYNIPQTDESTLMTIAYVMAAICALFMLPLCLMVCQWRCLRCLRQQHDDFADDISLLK

| IC50 [1] | IC50 [2] | IC50 [3] | melting point | SMILES |
| --- | --- | --- | --- | --- |
| 2.95 nM | 13.2 nM | 11.5 nM | – | Cn1cc2n(c1=O)C[C@@](C)(c1cc(NC(=O)c3ccc(C#N)cn3)ccc1F)N=C2N [Compound 1, N-{3-[(6R)-8-Amino-2,6-dimethyl-3-oxo-2,3,5,6-tetrahydroimidazo[1,5-a]pyrazin-6-yl]-4-fluorophenyl}-5-cyanopyridine-2-carboxamide] |
| 9.55 nM | 57.5 nM | 52.5 nM | – | Cc1nc(C(=O)Nc2ccc(F)c([C@]3(C)Cn4c(cn(C)c4=O)C(N)=N3)c2)co1 [Compound 3, N-{3-[(6R)-8-Amino-2,6-dimethyl-3-oxo-2,3,5,6-tetrahydroimidazo[1,5-a]pyrazin-6-yl]-4-fluorophenyl}-2-methyl-1,3-oxazole-4-carboxamide] |
| 3.98 nM | 6.31 nM | 6.03 nM | 214.8 °C | Cn1cc2n(c1=O)C[C@@](C)(c1cc(NC(=O)c3ccc(Cl)cn3)ccc1F)N=C2N [Compound 4, N-{3-[(6R)-8-amino-2,6-dimethyl-3-oxo-5H-imidazo[1,5-a]pyrazin-6-yl]-4-fluoro-phenyl}-5-chloro-pyridine-2-carboxamide] |
